In paper PMC6033897, “Characterization and Validation of a Human 3D Cardiac Microtissue for the Assessment of Changes in Cardiac Pathology” (Scientific Reports, 2018):
Structures can show the parent of a compound that is named as a salt.

Key:
cardiac microtissues [1] = assay: Mitochondrial membrane potential (ΔΨm, TMRE imaging) in cardiac microtissues; format: cell-based, human; settings: Homo sapiens; cardiac microtissues, 72 hours, geometric mean; read-out: Mitochondrial membrane potential (ΔΨm) IC50
Protocol: (§1) Cardiac microtissues were stained with fluorescent probes in cell culture media, 40 µl media was removed and 40 µl of 2x multiplexed dye was added back to the well for 30 minutes at 37 °C, 5% CO2. Fluorescent probes used were ER-Tracker blue (2 µM) to measure endoplasmic reticulum (ER) integrity and TMRE (500 nM) to measure mitochondrial membrane potential (ΔΨm). All microtissues were imaged on a Cell Voyager 7000 (YokogawaInc.) and images captured using a 20x objective (Olympus UPLSAPO 0.75 NA, 0.6 mm WD), with a 2 × 2 bin. Plates are imaged live, prior to use the stage temperature was set to 37 °C and CO2 level at 5%. […] Transmitted light images were acquired using a 100 W Halogen lamp as an illumination source. Images were captured over a 60 μm range in the Z-axis with a 5 μm interval between slices. Z-stack images were output as a maximal projection of multiple z-planes.
(§2) Maximum projection images were imported and analysed in the Columbus Platform (v2.7, Perkin Elmer Inc.).

cardiac microtissues [2] = assay: ER integrity (ER-Tracker blue imaging) in cardiac microtissues; format: cell-based, human; settings: Homo sapiens; cardiac microtissues, 72 hours, geometric mean; read-out: ER integrity IC50
Protocol: as §1, §2

hiPS-CM [3] = assay: Mitochondrial membrane potential (ΔΨm) in 2D monoculture; format: cell-based; settings: Homo sapiens
Protocol: (§3) For 2D monoculture, hiPS-CM, hCMEC and hCF were cultured as described above and seeded in CellCarrier-384 Ultra microplates (Perkin Elmer, 6057300) at 5000, 2500 and 1750 cells/well respectively.
(§4) Monoculture cells were stained with fluorescent probes diluted in cell culture media, 25 µl media was removed and 25 µl of 2x multiplexed dye was added back to the well for 15 minutes at 37 °C, 5% CO2.

hCMEC [4] = assay: as above; format: cell-based; settings: Homo sapiens
Protocol: as §3, §4

hiPS-CM [5] = assay: ER integrity in 2D monoculture; format: cell-based; settings: Homo sapiens
Protocol: as §3, §4

hCMEC [6] = assay: ER integrity in 2D monoculture; format: cell-based; settings: Homo sapiens
Protocol: as §3, §4

hiPS-CM [7] = assay: Cellular viability (ATP depletion) in 2D monoculture; format: cell-based; settings: Homo sapiens
Protocol: as §3
(§5) Cellular ATP concentrations were assessed using the CellTiter-Glo® Luminescent Cell Viability Assay as per the manufacturer’s instructions (Promega); for cardiac microtissues 40 µl media was removed prior to the addition of 40 µl CellTiter-Glo® reagent. […] Data from the same treatment on minimum of 3 occasions were averaged to represent the mean ATP measurement.

hCMEC [8] = assay: as above; format: cell-based; settings: Homo sapiens
Protocol: as §3, §5

hCF [9] = assay: ER integrity in 2D monoculture; settings: Homo sapiens, read-out: ER integrity IC50
cardiac spheroids = test system: cardiac spheroids; parameters: method as in PMID 28765558; settings: alternative cardiac spheroids; cited from earlier work
hCF [10] = assay: Cellular viability (ATP depletion) in 2D monoculture; settings: Homo sapiens, read-out: Cellular viability (ATP depletion) IC50
cardiac microtissues [11] = assay: Cellular viability (ATP depletion, CellTiter-Glo) in cardiac microtissues; format: cell-based, human; settings: Homo sapiens, cardiac microtissues, read-out: Cellular viability (ATP depletion) IC50
Protocol: as §5

hCF [12] = assay: Mitochondrial membrane potential (ΔΨm) in 2D monoculture; settings: Homo sapiens, read-out: Mitochondrial membrane potential (ΔΨm) IC50
[13] = total Cmax, therapeutically relevant maximum total plasma concentration; source not given; cited from earlier work

IC50 (cardiac microtissues [1]): 0.18 µM
IC50 (cardiac microtissues [2]): 3.18 µM
IC50 (hiPS-CM [3]; 24 hours): 8.28 µM
IC50 (hiPS-CM [3]; 72 hours): 16.9 µM
IC50 (hCMEC [4]; 24 hours): > 50 µM
IC50 (hCMEC [4]; 72 hours): > 50 µM
IC50 (hiPS-CM [5]; 24 hours): 10.5 µM
IC50 (hiPS-CM [5]; 72 hours): 76.5 µM
IC50 (hCMEC [6]; 24 hours): 43.6 µM
IC50 (hCMEC [6]; 72 hours): 31 µM
IC50 (hCF [9]; 24 h): 6.39 µM
IC50 (hCF [9]; 72 h): 46.6 µM
IC50 (hCF [12]; 24 h): > 50 µM
IC50 (hCF [12]; 72 h): > 50 µM
SMILES: COc1cccc2c1C(=O)c1c(O)c3c(c(O)c1C2=O)C[C@@](O)(C(=O)CO)C[C@@H]3O[C@H]1C[C@H](N)[C@H](O)[C@H](C)O1 [Doxorubicin HCl]
IC50 (hiPS-CM [7]; 24 hours): 9.26 µM
IC50 (hiPS-CM [7]; 72 hours): 1.01 µM
IC50 (hCMEC [8]; 24 hours): 1.03 µM
IC50 (hCMEC [8]; 72 hours): 0.1 µM
Concentration range with significant change in live/dead staining (cardiac spheroids): 5 to 40 µM
IC50 (hCF [10]; 24 h): 0.62 µM
IC50 (hCF [10]; 72 h): 0.11 µM
IC50 (cardiac microtissues [11]; 24 hours): 15.5 µM
IC50 (cardiac microtissues [11]; 72 hours, geometric mean): 0.83 µM
Cmax [13]: 15.3 µM
